Measured values taken from patent US12239661B2, “Methods and compositions for treating undesired implanted tissue filler” (priority 2019, dated 2025).

What was measured:
[1] = Quantitative histomorphometric analysis of injection sites (Example 1); assay type: in vivo, Swine (Sus scrofa domesticus); settings: injected area, day 7, mean
Procedure: Histomorphometric analysis was conducted on the 31 sections. Each section was analyzed with a color image analyzing system (Tribvn, France, CALOPIX version 3.2.0) to perform a semi-automatic analysis.
A Test Area was defined in a limited area where the print of the granules of the associated material was clear. This area was defined to evaluate the average area and diameter of each microsphere. A Test Area had to contain between 100 and 300 clearly defined granules to be considered as representative. FIG. 2 illustrates a Test Area in a section.
The injected area was the entire area where material was detected on the slide. The Test Area was part of the injected area.
Quantitative measurements were performed either in the Test Area or in the entire injected area. […]
Implant Area (μm^2) (Test Area): the surface area of granules measured in the Test Area (including any Lacunae Area).
Implant Area (mm^2) (Injected Area): the surface of granules was measured in the entire injected area (including any Lacunae Area). […]
Lacunae Area (mm^2) (Injected Area): the surface of the “Lacunae” Area was measured as defined by the optically empty spaces corresponding to merged granules (no distinct limits between several granules).

[2] = In vivo CT of filler nodule volume, density and 3D shape after test solutions 0-8 (Example 3)
Procedure: One hour after filler injections (T=1 h), 1.5 mL of selected solutions (Table 5, solutions 0-8, test items, solution 0 is normal saline and not hyperosmotic) were injected each into 9 dermal filler nodules in the right flank (ventral area).
A total of 7 CT-scans were performed at 1 h 15, 2 h, 4 h, 1 day (24 h), 3, 7 and 14 days after injection of the dermal filler. The clinical state of each animal is assessed once a week by body weight measurement and clinical observations.
The 10 SC injections of dermal filler on Day 0 were performed in the ventral area, (five nodules on each flank of the ventral area) for each pig. For each SC nodule, a theoretical volume of 500 μl was administered. One hour (±5 min) after injection of dermal filler, SC injection of the different solutions (prepared the day before) were performed into nine (9) nodules of dermal. For each SC nodule, a theoretical volume of 1.5 mL of test solution was administered.
The X-ray computed tomography acquisitions were performed with the Computed Tomography Scanner BrightSpeed 16 (General Electric). In order to measure the volume and the mean density and to visualize the 3D shape of the dermal filler (Radiesse® filler with or without test solution) injected, in vivo CT-scans were performed on Day 0: 1 h 15 (±10 min), 2 h (±15 min) and 4 h (±20 min), on Day 1 (24 h+1 h), Day 3, Day 7 and Day 14.
During CT acquisition on Day 0, the pigs received an IM injection of anesthesia. The animals were maintained under anesthesia until the CT acquisition at T=2 h (2 h after dermal filler injection session). Between these CT acquisitions, the animals were under surveillance in the recovery room on a heating mat with fluidotherapy. At the end of the CT acquisition at T=2 h, the pigs received a tattoo around each injected site. During the CT acquisitions at T=4 h and on Days 1, 3, 7 and 14, pigs received an IM injection of anesthesia. For the CT-scans, animals were positioned in dorsal recumbency and acquisitions were centered on the injection sites. The parameters of the CT-scan are described in Table 5.
The CT acquisition was analyzed with the software Avizo version 9.2.0. The objective of this analysis was to assess the degradation over time of the dermal filler injected by SC route after injection of different test solutions.
An image segmentation processing was performed on each CT acquisition. First, a manual pre-segmentation was performed around each nodule in order to roughly isolate the voxels corresponding to dermal filler product, which defined a Region of Interest (ROI). Second, an automatic segmentation was applied on the previously defined ROI using a global grey level thresholding procedure.
On day 0, a farm pig received ten (10) SC injections of Radiesse® dermal filler 0.5 mL (ventral area) (10 nodules in total). One hour after filler injections (T=1 h), 1.5 mL of one of eight test hyperosmotic solutions (1-8 solutions, Table 5) was injected at an injection site. One injection site was untreated and one injection site was treated with normal saline (0.9% wt/v NaCl).

[3] = Electron microscopy (SEM) of filler particles isolated from test sites (Example 1)
Procedure: EM analysis is used, for example, to analyze morphology and the particle size distribution of Calcium Hydroxyapatite (CaHA) particles in tissue integrated particles. […] The biopsy material underwent an enzymatic digestion with protease (Trypsin without EDTA, for […], at 37° C.) after fixation in 10% neutral buffered formalin (NBF). Digested sample was centrifuged, and microscopy samples of the supernatant as well as the pellet were prepared and subjected to EM analysis at room temperature.
Samples were analyzed using a Scanning Electron Microscope (SEM) (Phenom Pure G3, ThermoFisher, with Phenom Pro Suite application system, ImageJ (version 1.51j8) software and OriginPro 2018G (64-bit) SR1 b9.5.1.195 software for analysis and data processing). To evaluate the changes in CaHA microparticle characteristics the samples were analyzed with the Scanning Electron Microscopy (SEM) and evaluated for morphology as well as for the size and shape of the material. Statistical analysis of particle size distribution (PSD) would show changes of the material.
SEM images were taken from three fractions per sample to determine the particle- and volume-weighted size distributions. Up to 400 SEM images per fraction were taken at a magnification of ×500 and further processed by automated image analyzing software ImageJ (version 1.51j8). Image processing took place for every fraction image to determine selected parameters. e.g., Feret diameter and aspect ratio (D-ratio).

[4] = Semi-quantitative histopathologic analysis of injection sites (Example 1); settings: mean score, day 7
Procedure: After complete fixation in 10% NBF and micro-CT analysis, the 30 test sites and the TO site, were cut into five blocks. The blocks were decalcified for 48 hours with formic acid and then dehydrated in alcohol solutions of increasing concentration, cleared in xylene and embedded in paraffin. […] Finally, the blocks were placed in HCl for 15 min and the blocks could then be cut to obtain slides for analysis.
The section was stained with safranin-hematoxylin-cosin (SHE). The same procedure was used for the preparation of the TO site used for structural characterization and evaluation of the degradation.
Qualitative and semi-quantitative histopathologic evaluation of the local tissue effects and the inflammatory response at injection sites was conducted according using standard methods.
Evaluation of local tissue effects was based on the qualitative and semi-quantitative histopathologic evaluation: mean score comparison of the semi-quantitative parameters and comparison of the qualitative histopathologic findings.

[5] = Example 3, mean, listed as Normal Saline (sol 0)
[6] = particle size distribution by EM, day 7

[Cl-].[Na+] [sol 0, Sodium chloride]
Implant area [1]: 19.2 mm^2
Change in Volume as percent of Injected Volume, Day 14/15 ([2]; Example 3 (Day 14), mean, listed as Normal Saline (sol 0)): 187.72%
Change in Volume as percent of Injected Volume, Day 0 + 1 h 15 ([2]; Example 3, mean, 1.5 mL solution into 500 μl nodule, listed as Normal Saline (sol 0)): 155.02%
Change in Volume as percent of Injected Volume, Day 0 + 2 h [2, 5]: 159.42%
Change in Volume as percent of Injected Volume, Day 0 + 4 h [2, 5]: 182.97%
Change in Volume as percent of Injected Volume, Day 1 [2, 5]: 209.66%
Change in Volume as percent of Injected Volume, Day 3 [2, 5]: 215.48%
Change in Volume as percent of Injected Volume, Day 7 [2, 5]: 212.85%
effect on volume at the filler injection site ([2]; after 7 and 14 days, vs untreated, listed as normal saline): does not produce significant decreased volume
particle degradation (change in particle size or surfaces) by EM ([3]; day 7): no indication of particle degradation
Mean diameter ([3]; filler particles by EM, seven days after filler injection): 28.8 μm
25-45 μm [3, 6]: 93.2 wt %
<25 μm [3, 6]: 1.4 wt %
>45 μm [3, 6]: 5.4 wt %
D-ratio ([3]; shape index, 1=round, EM, day 7): 0.8
AM Degradation [4]: 1.0
Cell or Tissue Degeneration [4]: 0.0
Encapsulation [4]: 0.0
Fatty Infiltrate [4]: 0.0
Fibrin [4]: 1.7
Fibroblasts [4]: 2.0
Fibrosis [4]: 0.0
Giant Cells [4]: 2.0
Hemorrhage [4]: 1.1
Lymphocytes [4]: 1.3
Macrophages [4]: 2.4
Necrosis [4]: 0.1
Neovascularization [4]: 1.0
Plasma Cells [4]: 0.0
Polymorphonuclear Cells [4]: 1.0
Tissue Ingrowth [4]: 2.5
Tissue Integration [4]: 2.5
